Legend:
[1] = molecular target: Aldo-keto reductase family 1 member B1 (Rattus norvegicus, UniProt P07943); assay: biochemical; format: tissue-based, Lens of camera-type eye;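 note: inhibition of aldose reductase enzyme activity, measured with DL-glyceraldehyde as the substrate; in other assays of this panel Not Active means under 50% inhibition at 10 µM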
[2] = DRUGMATRIX: Calcium Channel Type L, Benzothiazepine radioligand binding (ligand: [3H] Diltiazem); format: cell membranes, Rattus norvegicus, Wistar, Brain, Membrane; conditions: Not Active = under 50% inhibition at 10 µM
[3] = molecular target: T1, C-X-C chemokine receptor type 2 (Homo sapiens, UniProt P25025); format: cell membranes, Membrane; conditions: cho-k1; note: in other assays of this panel Not Active means under 50% inhibition at 10 µM
T1 sequence (P25025 whole entry): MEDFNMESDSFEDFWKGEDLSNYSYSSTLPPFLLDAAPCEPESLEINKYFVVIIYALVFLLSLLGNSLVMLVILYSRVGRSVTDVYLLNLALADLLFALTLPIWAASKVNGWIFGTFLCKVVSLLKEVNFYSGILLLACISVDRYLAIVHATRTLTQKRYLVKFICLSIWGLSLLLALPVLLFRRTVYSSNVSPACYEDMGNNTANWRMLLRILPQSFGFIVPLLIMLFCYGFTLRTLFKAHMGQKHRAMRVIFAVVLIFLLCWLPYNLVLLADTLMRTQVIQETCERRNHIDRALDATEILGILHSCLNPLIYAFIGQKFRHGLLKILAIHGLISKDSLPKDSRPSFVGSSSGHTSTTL

[4] = molecular target: T2, Amine oxidase [flavin-containing] A (Homo sapiens, UniProt P21397); assay: DRUGMATRIX: Monoamine Oxidase MAO-A enzyme inhibition (substrate: Kynuramine); parameters: species or system BTI-TN-5B1-4; conditions: bti-tn-5b1-4; Not Active = under 50% inhibition at 10 µM
T2 sequence (P21397 whole entry): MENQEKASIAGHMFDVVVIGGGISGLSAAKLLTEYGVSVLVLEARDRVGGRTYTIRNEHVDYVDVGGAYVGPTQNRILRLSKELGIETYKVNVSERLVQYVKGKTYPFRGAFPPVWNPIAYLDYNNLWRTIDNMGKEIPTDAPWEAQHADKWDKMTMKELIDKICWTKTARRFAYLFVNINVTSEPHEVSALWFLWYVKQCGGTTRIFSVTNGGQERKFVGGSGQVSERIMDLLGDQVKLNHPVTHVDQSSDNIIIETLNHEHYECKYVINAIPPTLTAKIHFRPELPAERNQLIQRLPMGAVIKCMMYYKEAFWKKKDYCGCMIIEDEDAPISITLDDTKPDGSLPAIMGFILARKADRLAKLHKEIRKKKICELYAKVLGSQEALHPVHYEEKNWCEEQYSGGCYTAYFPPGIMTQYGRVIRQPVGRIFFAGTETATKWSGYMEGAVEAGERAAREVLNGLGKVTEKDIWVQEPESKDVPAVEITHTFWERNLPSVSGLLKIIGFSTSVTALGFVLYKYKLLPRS

[5] = molecular target: cGMP-specific 3',5'-cyclic phosphodiesterase (Homo sapiens, UniProt O76074); assay: DRUGMATRIX: Phosphodiesterase PDE5 enzyme inhibition (substrate: [3H]cGMP + cGMP); format: tissue-based; conditions: platelet; Not Active = under 50% inhibition at 10 µM
[6] = molecular target: Platelet-activating factor receptor (Homo sapiens, UniProt P25105); format: tissue-based; note: in other assays of this panel Not Active means under 50% inhibition at 10 µM
Platelet-activating factor receptor, sequence (P25105 whole entry): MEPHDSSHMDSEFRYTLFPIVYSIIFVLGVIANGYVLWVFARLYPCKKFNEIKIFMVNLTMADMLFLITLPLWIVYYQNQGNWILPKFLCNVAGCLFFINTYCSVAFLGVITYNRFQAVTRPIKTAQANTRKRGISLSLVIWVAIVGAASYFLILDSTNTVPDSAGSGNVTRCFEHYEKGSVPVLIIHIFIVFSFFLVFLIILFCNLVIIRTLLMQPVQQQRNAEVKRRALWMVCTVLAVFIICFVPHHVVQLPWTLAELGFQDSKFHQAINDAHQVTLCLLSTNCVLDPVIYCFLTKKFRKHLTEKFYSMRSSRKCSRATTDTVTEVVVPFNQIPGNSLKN

Caspase-1 = molecular target: T3, Caspase-1 (Homo sapiens, UniProt P29466); parameters: species or system Escherichia coli;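 note: Caspase-1 enzyme inhibition assay with a peptide substrate; in other assays of this panel Not Active means under 50% inhibition at 10 µM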
T3 sequence (P29466 whole entry): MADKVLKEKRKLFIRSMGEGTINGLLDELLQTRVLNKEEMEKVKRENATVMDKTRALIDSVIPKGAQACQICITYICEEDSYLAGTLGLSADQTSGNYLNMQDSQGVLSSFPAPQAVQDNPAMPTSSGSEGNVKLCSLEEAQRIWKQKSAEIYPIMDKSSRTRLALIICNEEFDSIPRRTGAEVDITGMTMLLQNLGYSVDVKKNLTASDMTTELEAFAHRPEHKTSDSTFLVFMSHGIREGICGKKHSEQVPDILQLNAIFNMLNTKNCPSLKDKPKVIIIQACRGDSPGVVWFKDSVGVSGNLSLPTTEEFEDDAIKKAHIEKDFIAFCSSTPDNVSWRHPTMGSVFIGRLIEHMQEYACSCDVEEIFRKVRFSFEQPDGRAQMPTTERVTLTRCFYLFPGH

[7] = molecular target: Protein phosphatase 3 catalytic subunit alpha (Homo sapiens, UniProt Q08209); parameters: species or system Escherichia coli

CC(=O)O[C@@]12CO[C@@H]1C[C@H](O)[C@@]1(C)C(=O)[C@H](O)C3=C(C)[C@@H](OC(=O)[C@H](O)[C@@H](NC(=O)OC(C)(C)C)c4ccccc4)C[C@@](O)([C@@H](OC(=O)c4ccccc4)[C@H]21)C3(C)C.O.O.O [DOCETAXEL]
Not Active: IC50 [1] | IC50 [2] | Ki [2] | IC50 [3] | IC50 [4] | IC50 [5] | IC50 [6] | IC50 (Caspase-1) | IC50 [7]

COc1cc2nc(N3CCN(C(=O)C4COc5ccccc5O4)CC3)nc(N)c2cc1OC (stereo not drawn) [DOXAZOSIN]
Not Active: IC50 [1] | IC50 [2] | Ki [2] | IC50 [3] | IC50 [4] | IC50 [5] | IC50 [6] | IC50 (Caspase-1) | IC50 [7]

C[C@H]1c2cccc(O)c2C(=O)C2=C(O)[C@]3(O)C(=O)C(C(N)=O)=C(O)[C@@H](N(C)C)[C@@H]3[C@@H](O)[C@@H]21.O [DOXYCYCLINE]
Not Active: IC50 [1] | IC50 [2] | Ki [2] | IC50 [3] | IC50 [4] | IC50 [5] | IC50 [6] | IC50 (Caspase-1) | IC50 [7]

O=C(CCCN1CC=C(n2c(=O)[nH]c3ccccc32)CC1)c1ccc(F)cc1 [DROPERIDOL]
Not Active: IC50 [1] | IC50 [2] | Ki [2] | IC50 [3] | IC50 [4] | IC50 [5] | IC50 [6] | IC50 (Caspase-1) | IC50 [7]

CC(C)[C@H]1C(=O)N2CCC[C@H]2[C@]2(O)O[C@](NC(=O)[C@@H]3C=C4c5cccc6[nH]cc(c56)C[C@H]4N(C)C3)(C(C)C)C(=O)N12 [ERGOCORNINE]
Not Active: IC50 [1] | IC50 [2] | Ki [2] | IC50 [3] | IC50 [4] | IC50 [5] | IC50 [6] | IC50 (Caspase-1) | IC50 [7]

C[C@]12CC[C@@H]3c4ccc(O)cc4CC[C@H]3[C@@H]1CCC2=O [ESTRONE]
Not Active: IC50 [1] | IC50 [2] | Ki [2] | IC50 [3] | IC50 [4] | IC50 [5] | IC50 [6] | IC50 (Caspase-1) | IC50 [7]

OC(Cn1cncn1)(Cn1cncn1)c1ccc(F)cc1F [FLUCONAZOLE]
Not Active: IC50 [1] | IC50 [2] | Ki [2] | IC50 [3] | IC50 [4] | IC50 [5] | IC50 [6] | IC50 (Caspase-1) | IC50 [7]

CC(C)C(=O)Nc1ccc([N+](=O)[O-])c(C(F)(F)F)c1 [FLUTAMIDE]
Not Active: IC50 [1] | IC50 [2] | Ki [2] | IC50 [3] | IC50 [4] | IC50 [5] | IC50 [6] | IC50 (Caspase-1) | IC50 [7]

N=C(N)NCCN1CCCCCCC1 [GUANETHIDINE]
Not Active: IC50 [1] | IC50 [2] | Ki [2] | IC50 [3] | IC50 [4] | IC50 [5] | IC50 [6] | IC50 (Caspase-1) | IC50 [7]

CC1(C)O[C@@H]2C[C@H]3[C@@H]4CCC5=CC(=O)CC[C@]5(C)[C@@]4(F)[C@@H](O)C[C@]3(C)[C@]2(C(=O)CCl)O1 [HALCINONIDE]
Not Active: IC50 [1] | IC50 [2] | Ki [2] | IC50 [3] | IC50 [4] | IC50 [5] | IC50 [6] | IC50 (Caspase-1) | IC50 [7]

O=c1[nH]c(=O)n([C@H]2C[C@H](O)[C@@H](CO)O2)cc1I [IDOXURIDINE]
Not Active: IC50 [1] | IC50 [2] | Ki [2] | IC50 [3] | IC50 [4] | IC50 [5] | IC50 [6] | IC50 (Caspase-1) | IC50 [7]

CC1Cc2ccccc2N1NC(=O)c1ccc(Cl)c(S(N)(=O)=O)c1 (stereo not drawn) [INDAPAMIDE]
Not Active: IC50 [1] | IC50 [2] | Ki [2] | IC50 [3] | IC50 [4] | IC50 [5] | IC50 [6] | IC50 (Caspase-1) | IC50 [7]

Nc1nc(N)nc(-c2cc(Cl)ccc2Cl)n1.O=C(O)/C=C\C(=O)O [IRSOGLADINE MALEATE]
Not Active: IC50 [1] | IC50 [2] | Ki [2] | IC50 [3] | IC50 [4] | IC50 [5] | IC50 [6] | IC50 (Caspase-1) | IC50 [7]

CCC(C)n1ncn(-c2ccc(N3CCN(c4ccc(OCC5COC(Cn6cncn6)(c6ccc(Cl)cc6Cl)O5)cc4)CC3)cc2)c1=O (stereo not drawn) [ITRACONAZOLE]
Not Active: IC50 [1] | IC50 [2] | Ki [2] | IC50 [3] | IC50 [4] | IC50 [5] | IC50 [6] | IC50 (Caspase-1) | IC50 [7]

CCCCN1CCCC[C@H]1C(=O)Nc1c(C)cccc1C [LEVOBUPIVACAINE]
Not Active: IC50 [1] | IC50 [2] | Ki [2] | IC50 [3] | IC50 [4] | IC50 [5] | IC50 [6] | IC50 (Caspase-1) | IC50 [7]

CCCCc1nc(Cl)c(CO)n1Cc1ccc(-c2ccccc2-c2nnn[nH]2)cc1 [LOSARTAN]
Not Active: IC50 [1] | IC50 [2] | Ki [2] | IC50 [3] | IC50 [4] | IC50 [5] | IC50 [6] | IC50 (Caspase-1) | IC50 [7]

Sc1ncnc2nc[nH]c12 [MERCAPTOPURINE ANHYDROUS]
Not Active: IC50 [1] | IC50 [2] | Ki [2] | IC50 [3] | IC50 [4] | IC50 [5] | IC50 [6] | IC50 (Caspase-1) | IC50 [7]

C[C@](N)(Cc1ccc(O)c(O)c1)C(=O)O [METHYLDOPA]
Not Active: IC50 [1] | IC50 [2] | Ki [2] | IC50 [3] | IC50 [4] | IC50 [5] | IC50 [6] | IC50 (Caspase-1) | IC50 [7]

C[C@]12CCC(=O)C=C1CC[C@@H]1[C@@H]2CC[C@@]2(C)[C@H]1CC[C@]2(C)O [METHYLTESTOSTERONE]
Not Active: IC50 [1] | IC50 [2] | Ki [2] | IC50 [3] | IC50 [4] | IC50 [5] | IC50 [6] | IC50 (Caspase-1) | IC50 [7]

Cc1ccccc1N1C(=O)c2cc(S(N)(=O)=O)c(Cl)cc2NC1C (stereo not drawn) [METOLAZONE]
Not Active: IC50 [1] | IC50 [2] | Ki [2] | IC50 [3] | IC50 [4] | IC50 [5] | IC50 [6] | IC50 (Caspase-1) | IC50 [7]

COCCc1ccc(OCC(O)CNC(C)C)cc1 (stereo not drawn) [METOPROLOL]
Not Active: IC50 [1] | IC50 [2] | Ki [2] | IC50 [3] | IC50 [4] | IC50 [5] | IC50 [6] | IC50 (Caspase-1) | IC50 [7]

CCn1cc(C(=O)O)c(=O)c2cc(F)c(N3CCNCC3)cc21 [NORFLOXACIN]
Not Active: IC50 [1] | IC50 [2] | Ki [2] | IC50 [3] | IC50 [4] | IC50 [5] | IC50 [6] | IC50 (Caspase-1) | IC50 [7]
